Assays:
[1] = biological target: T1, human mPGES-1 (Homo sapiens, UniProt O14684); experiment: in vitro inhibition of human mPGES-1; assay type: biochemical; conditions: Table 2
T1 sequence (O14684 1-152): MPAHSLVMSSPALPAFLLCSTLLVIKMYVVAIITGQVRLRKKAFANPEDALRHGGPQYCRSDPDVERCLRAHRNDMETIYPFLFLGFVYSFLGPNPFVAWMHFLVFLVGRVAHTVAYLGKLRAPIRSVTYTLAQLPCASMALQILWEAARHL

[2] = system: COX-1/2 (mixed COX-1 and COX-2); experiment: inhibition of mixed COX-1 and COX-2; assay type: biochemical; conditions: summary

activity against human mPGES-1 in words [1] | Compound | inhibition against COX-1/2 in words [2]
submicromolar potency | CCOc1ccc(-c2nn(-c3ccc(Cl)cc3)cc2/C=C(\C#N)C(=O)O)cc1 [13a] | –
not very active | CCOc1ccc(-c2nn(-c3ccc(Cl)cc3)cc2C=C(C#N)C#N)cc1 [13b] | –
not very active | CCOc1ccc(-c2nn(-c3ccc(Cl)cc3)cc2/C=C(\C#N)C(N)=O)cc1 [13c] | –
submicromolar potency | CCCCCCOc1ccc(-c2nn(-c3ccc(Cl)cc3)cc2/C=C(\C#N)C(=O)O)cc1 [14a] | –
not very active | CCCCCCOc1ccc(-c2nn(-c3ccc(Cl)cc3)cc2C=C(C#N)C#N)cc1 [14b] | –
not very active | CCCCCCOc1ccc(-c2nn(-c3ccc(Cl)cc3)cc2/C=C(\C#N)C(N)=O)cc1 [14c] | –
– | CCCCCCOc1ccc(-c2nn(-c3ccc(Cl)cc3)cc2/C=C2/SC(=O)N(CC(=O)O)C2=O)cc1 [14f] | without significant inhibition

— PMC5836806 (Bioorganic & medicinal chemistry letters, 2018)
